Results reported in publication PMC6934184, “Selective DNA-PKcs inhibition extends the therapeutic index of localized radiotherapy and chemotherapy” (The Journal of Clinical Investigation, 2019).

Molecular target: T1, CSK (Homo sapiens, UniProt P41240)
T1 construct: purchased Thermo Fisher Scientific (Life Technologies) SelectScreen
Test: SelectScreen Z'LYTE
Format: biochemical
In short: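 NU5455 was profiled across the SelectScreen Broad panel of kinase activity and binding assays. Z'LYTE reactions such as CSF1R ran at apparent Km ATP, while the Adapta CAMK1 assay used ATP listed as 10. Values are given as percent.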

T1 sequence (P41240 whole entry): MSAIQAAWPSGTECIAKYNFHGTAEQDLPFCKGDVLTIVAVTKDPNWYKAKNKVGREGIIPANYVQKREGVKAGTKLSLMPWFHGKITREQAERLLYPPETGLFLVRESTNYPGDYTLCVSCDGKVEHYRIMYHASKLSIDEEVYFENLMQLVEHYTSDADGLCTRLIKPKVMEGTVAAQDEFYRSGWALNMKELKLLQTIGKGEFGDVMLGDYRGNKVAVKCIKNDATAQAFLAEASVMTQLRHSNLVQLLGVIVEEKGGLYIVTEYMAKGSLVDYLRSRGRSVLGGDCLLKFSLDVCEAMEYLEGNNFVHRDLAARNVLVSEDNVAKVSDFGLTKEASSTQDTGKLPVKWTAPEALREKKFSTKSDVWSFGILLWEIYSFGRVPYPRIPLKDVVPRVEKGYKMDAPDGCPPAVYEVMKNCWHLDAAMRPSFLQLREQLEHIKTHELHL

`CN(C(=O)CN1CCOCC1)c1ccc2sc3c(-c4cccc5c(=O)cc(N6CC7CCC(C6)O7)oc45)cccc3c2c1` [NU5455] showed an inhibition at 1 µM of 7.6%.
